In patent publication US10849339B2, “Beverages containing rare sugars” (The Coca-Cola Company, priority 2013, dated 2020):

Experiments:
[1] = Sweetness evaluation against sucrose solutions in citric acid buffer, two panelists (Example 5); assay type: in vivo, human
Procedure: First, the sweetness level of 2,4-dihydroxybenzoic acid was evaluated against three solutions of 1%, 2%, and 3% sucrose. Second, the sweetness level of a solution containing D-psicose and 500 ppm 2,4-dihydroxybenzoic acid was evaluated against 5%, 6.5%, and 7% sucrose solutions. All solutions were made in citric acid/potassium citrate buffer.
(§1) Beverages were kept in the refrigerator overnight and tasted cold the following day. Two panelists evaluated the beverages. Bottles were removed from the refrigerator and about 20 ml of beverage poured in 2 oz-plastic cups. Mineral water was given for palate rinsing before tasting and between tasting different samples. Unsalted crackers were also given.

[2] = sucrose part of the blend; from US20130041046A; cited from earlier work
[3] = Sweetness evaluation against sucrose solutions in citric acid buffer (Example 7); assay type: in vivo, human
Procedure: 4-Amino-5-(cyclohexyloxy)-2-methylquinoline-3-carboxylic acid was evaluated at 30 ppm. First, the sweetness level of the compound was evaluated against three solutions of 1%, 1.5%, and 2% sucrose. Second, the sweetness level of a solution containing D-psicose and 30 ppm amino-5-(cyclohexyloxy)-2-methylquinoline-3-carboxylic acid was evaluated against 5%, 6%, and 7% sucrose solutions.
A solution containing a blend of sucrose and D-psicose with a total sweetness equivalent to 5.5% sucrose (3.5% sucrose and 2% SE D-psicose) was also made and evaluated for its sweetness with and without addition of 30 ppm 4-amino-5-(cyclohexyloxy)-2-methylquinoline-3-carboxylic acid. All solutions were made in citric acid/potassium citrate buffer.
as §1, with “given for thorough palate rinsing” for “given for palate rinsing”

[4] = Sweetness evaluation against sucrose solutions in citric acid buffer, three panelists (Example 6); assay type: in vivo, human; conditions: D-psicose (5% SE) in citric acid buffer
[5] = Taste test with eight panelists, sweetness rated against 1%, 1.5% and 2% sucrose controls (Example 1); assay type: in vivo, human
Procedure: Taste tests were carried out with eight panelists. Bottles were removed from the refrigerator and about 50 ml of beverage was poured into 4 oz-plastic cups. Panelists were given mineral water to rinse their mouth before tasting and between tasting different samples. Unsalted crackers were also given to panelists to eat. Taste tests were done in two rounds: a first round in which a sample of D-psicose in citric acid/potassium citrate buffer and a sample of D-psicose and Reb-C in citric acid/potassium citrate buffer were evaluated, and a second round in which a sample of D-psicose in a lemon lime carbonated soft drink and a sample of D-psicose and Reb-C in a lemon lime carbonated soft drink were evaluated. In each round, panelists were asked to e choose the sweetest sample among the pair, then rate the sweetness level against control solutions of 1%, 1.5%, and 2% sucrose in citric acid/potassium citrate buffer.

[6] = Sucrose equivalence of D-psicose (background statement); assay type: in vivo, human; conditions: 2% (w/w) in a citric acid/potassium citrate matrix
Source text: The sweetness of a non-sucrose sweetener can be measured against a sucrose reference by determining the non-sucrose sweetener's sucrose equivalence. Typically, taste panelists are trained to detect sweetness of reference sucrose solutions containing between 1-15% sucrose (w/v). Other non-sucrose sweeteners are then tasted at a series of dilutions to determine the concentration of the non-sucrose sweetener that is as sweet as a given percent sucrose reference. For example, if a 1% solution of a sweetener is as sweet as a 10% sucrose solution, then the sweetener is said to be 10 times as potent as sucrose, and has 10% sucrose equivalence.

[7] = Sweetness evaluation against sucrose solutions in citric acid buffer, two panelists (Example 8); assay type: in vivo, human
Procedure: The sweetness level of D-tagatose and FEMA GRAS FLAVOR 4701 was evaluated against 5%, 6%, and 7% sucrose solutions. All solutions were made in citric acid/potassium citrate buffer Beverages were made and chilled at 4° C. before tasting. Two panelists evaluated the beverages. Bottles were removed from the refrigerator and about 20 ml of beverage poured in 2 oz-plastic cups. Mineral water was given to panelists for palate rinsing before tasting and between tasting different samples. Unsalted crackers were also given.

[8] = Sweetness recognition threshold concentration by taste testing; assay type: in vivo, human
Source text: The term “sweetness recognition threshold concentration,” as generally used herein, is the lowest known concentration of a sweet compound that is perceivable by the human sense of taste, typically around 1.0% sucrose equivalence (1.0% SE). While the particular sweetness recognition threshold concentration between sweetness enhancers can vary, generally the concentration of sweetness enhancer is below 500 ppm, such as, for example, from about 5 ppm to about 300 ppm, from about 50 ppm to about 200 ppm or from about 100 ppm to about 200 ppm.
Generally, the sweetness enhancers may enhance or potentiate the sweet taste of sweeteners without providing any noticeable sweet taste by themselves when present at or below the sweetness recognition threshold concentration of a given sweetness enhancer; however, the sweetness enhancers may themselves provide sweet taste at concentrations above their sweetness recognition threshold concentration. The sweetness recognition threshold concentration is specific for a particular enhancer and can vary based on the beverage matrix. The sweetness recognition threshold concentration can be easily determined by taste testing increasing concentrations of a given enhancer until greater than 1.0% sucrose equivalence in a given beverage matrix is detected. […]

**Q.** Which results are given for `O=C(O)c1ccc(O)cc1O` [2,4-dihydroxybenzoic acid]?
**A.** sweetness against 1%, 2% and 3% sucrose solutions ([1]; 500 ppm alone in citric acid buffer): < 1 % sucrose; increase of detected sucrose equivalence ([1]; added at or below its sweetness recognition threshold to a beverage containing D-psicose, embodiment statement): about 1.5%

**Q.** Which results are given for `Cc1nc2cccc(OC3CCCCC3)c2c(N)c1C(=O)O` [4-amino-5-(cyclohexyloxy)-2-methylquinoline-3-carboxylic acid]?
**A.** sweetness with 30 ppm enhancer in combination with sucrose individually [2]: 7%; sweetness with 30 ppm enhancer in combination with D-psicose individually ([3]; D-psicose part of the blend (2% SE)): 3 % SE; increase of detected sucrose equivalence ([3]; added at or below its sweetness recognition threshold, b195 after b194 (D-psicose and sucrose), embodiment statement): about 5.0%

**Q.** For `O=C(CO)[C@H](O)[C@H](O)[C@H](O)CO` [D-psicose], which “sweetness against 5% and 6.5% sucrose solutions” value [4] is on record?
**A.** Its value is 5 % sucrose.

**Q.** And the sweetness equivalence ([5]; 2% D-psicose in the absence of Rebaudioside C)?
**A.** Its sweetness equivalence is 1.2 % sucrose.

**Q.** What about the “detected sucrose equivalence before addition of Rebaudioside C” value ([5]; lemon-lime carbonated soft drink, citric acid buffer, D-psicose about 2% by weight, embodiment statement) of the same compound?
**A.** Its value is “about 1.2%”.

**Q.** What about the “sweetness against 5% and 6.5% sucrose solutions” value ([1]; D-psicose solution (5% SE), citric acid buffer) of the same compound?
**A.** The value was 5 % sucrose.

**Q.** And the sucrose equivalence [6]?
**A.** The sucrose equivalence was “about 1.26%”.

**Q.** What about the “sweetness against 5% and 6% sucrose solutions” value ([3]; D-psicose (5% SE) in citric acid buffer) of the same compound?
**A.** Its value is 5 % sucrose.

**Q.** With `O=C(CO)[C@@H](O)[C@@H](O)[C@H](O)CO` [D-tagatose] as the compound, how does the “sweetness against 5% and 6% sucrose solutions” value ([7]; D-tagatose (5% SE) in citric acid buffer) read?
**A.** Its value is 5 % sucrose.

**Q.** Which sucrose equivalence ([7]; 15 ppm alone in citric acid buffer) does the source give for `CCCNC(=O)C(C)(C)COc1cccc2c1C(N)=NS(=O)(=O)N2` [FEMA GRAS flavor 4701] here?
**A.** The sucrose equivalence was “less than 1.0%”.

**Q.** With Rebaudioside C as the compound, how does the “sweetness recognition threshold concentration” value ([8]; in a citric acid/potassium citrate buffer) read?
**A.** Its value is 270 ppm.

**Q.** What about the “sweetness recognition threshold concentration” value ([8]; in cola) of the same compound?
**A.** Its value is “about 345 ppm”.

**Q.** And the sucrose equivalence ([5]; 220 ppm in citric acid/potassium citrate buffer, alone)?
**A.** The sucrose equivalence was “less than 1.0%”.

**Q.** And the “detected sucrose equivalence after addition of Rebaudioside C” value ([5]; about 220 ppm added to lemon-lime carbonated soft drink, citric acid buffer, D-psicose about 2% by weight, embodiment statement)?
**A.** Its value is “about 2.0%”.
